System: not given
Assay: not given
Details: cited from earlier work

SMILES | stability in plasma
COc1cc(O)c2c(c1)/C=C/C[C@H](O)[C@H](O)C(=O)/C=C\C[C@H](C)OC2=O [(5Z)-7-oxozeaenol] | instability in plasma

Biological target: TaK1-TaB1 (TAK-1 enzyme) (Homo sapiens (Human), UniProt O43318)
Assay: TaK1-TaB1 inhibitor assay (IC50 of RAL analogues against TAK-1 enzyme)
Format: biochemical
Details: Table 1, TAK-1 enzyme
Text: IV. TaK1-TaB1 (Transforming Growth Factor-β Activated Linase-1/TAK-1 Binding Protein 1) Inhibitor Assays

Sequence of TaK1-TaB1 (TAK-1 enzyme) (O43318 other isoform, or with tags, fused parts or gaps): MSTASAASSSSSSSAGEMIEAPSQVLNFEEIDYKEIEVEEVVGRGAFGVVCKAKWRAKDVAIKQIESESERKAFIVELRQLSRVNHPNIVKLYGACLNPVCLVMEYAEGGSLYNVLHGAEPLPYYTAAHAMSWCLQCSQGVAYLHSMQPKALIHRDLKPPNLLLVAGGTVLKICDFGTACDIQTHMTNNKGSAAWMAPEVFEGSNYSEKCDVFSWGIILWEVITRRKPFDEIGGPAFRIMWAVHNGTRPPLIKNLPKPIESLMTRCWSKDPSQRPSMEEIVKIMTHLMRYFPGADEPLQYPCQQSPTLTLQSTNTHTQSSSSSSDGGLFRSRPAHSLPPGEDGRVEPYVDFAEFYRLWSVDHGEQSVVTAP

SMILES | IC50 [µM]
COc1cc(O)c2c(c1)/C=C/C[C@H](O)[C@H](O)C(=O)CCC[C@H](C)OC2=O [LL-Z164-1, reference compound] | 2.6
COc1cc(O)c2c(c1)[C@H]1O[C@@H]1C[C@H](O)[C@H](O)C(=O)CCC[C@H](C)OC2=O [dihydrohypothemycin, reference compound] | > 30
COc1cc(O)c2c(c1)/C=C/C[C@H](O)[C@H](O)[C@@H](O)/C=C/C[C@H](C)OC2=O [zeaenol, reference compound] | 10

Results, then the molecule that gave them:

IC50 [µM] | SMILES
> 30 | C/C=C\C=C/C(=O)[C@@H](O)[C@@H](O)C/C=C/c1cc(OC)cc(OC)c1C(=O)OC [Compound 4, Methyl 2-((1E,4S,5S,7Z,9Z)-4,5-dihydroxy-6-oxoundeca-1,7,9-trien-1-yl)-4,6-dimethoxybenzoate]
2.6 | COc1cc2c(c(O)c1Br)C(=O)O[C@@H](C)C/C=C\C(=O)[C@@H](O)[C@@H](O)C/C=C/2 [Compound 6, (3S,5Z,8S,9S,11E)-15-Bromo-8,9,16-trihydroxy-14-methoxy-3-methyl-3,4,9,10-tetrahydro-1H-benzo[c][1]oxacyclotetradecine-1,7(8H)-dione]
0.36 | COc1cc(O)c2c(c1Br)/C=C/C[C@H](O)[C@H](O)C(=O)/C=C\C[C@H](C)OC2=O [Compound 7, (3S,5Z,8S,9S,11E)-13-Bromo-8,9,16-trihydroxy-14-methoxy-3-methyl-3,4,9,10-tetrahydro-1H-benzo[c][1]oxacyclotetradecine-1,7(8H)-dione]
> 30 | COc1cc(O)c2c(c1)/C=C/C[C@@H]1OC(CC(=O)[C@H]1O)C[C@H](C)OC2=O [Compound 9, (1^2S,1^3S,8S,E)-1^3,5^3-Dihydroxy-5^5-methoxy-8-methyl-1^3,1^4,1^5,1^6-tetrahydro-1^2H-7-oxa-1(2,6)-pyrana-5(1,2) benzenacyclononaphan-3-ene-1^4,6-dione]

Same assay, conditions: among synthesized analogues

activity in TAK-1 assay | SMILES
relatively active | COC1=CC(=O)C2=C(/C=C/C[C@H](O)[C@H](O)C(=O)/C=C\C[C@H](C)OC2=O)C1(F)F [Compound 5, (3S,5Z,8S,9S,11E)-13,13-Difluoro-8,9-dihydroxy-14-methoxy-3-methyl-3,4,9,10-tetrahydro-1H benzo[c][1]oxacyclotetradecine-1,7,16(8H,13H)-trione]

Same assay, conditions: restated in Table 2 beside docking scores

IC50 [µM] | SMILES
> 30 | C/C=C\C=C/C(=O)[C@@H](O)[C@@H](O)C/C=C/c1cc(OC)cc(OC)c1C(=O)OC [Compound 4, Methyl 2-((1E,4S,5S,7Z,9Z)-4,5-dihydroxy-6-oxoundeca-1,7,9-trien-1-yl)-4,6-dimethoxybenzoate]
8.9 | COc1c(Br)c(O)c2c(c1Br)/C=C/C[C@H](O)[C@H](O)C(=O)/C=C\C[C@H](C)OC2=O [Compound 8, (3S,5Z,8S,9S,11E)-13,15-Dibromo-8,9,16-trihydroxy-14methoxy-3-methyl-3,4,9,10-tetrahydro-1H-benzo[c][1]oxacyclotetradecine-1,7(8H)-dione]
0.38 | COc1cc(O)c2c(c1)/C=C/C[C@@H]1OC(C)(C)O[C@@H]1C(=O)/C=C\C[C@H](C)OC2=O [Compound 10, (3aS,5Z,8S,15E,17aS)-11-Hydroxy-13-methoxy-2,2,8-trimethyl-7,8,17,17a-tetrahydro-4H-benzo[c][1,3]dioxolo[4,5-h][1]oxacyclotetradecine-4,10(3aH)-dione]
> 30 | COc1cc(O)cc2c1C(=O)O[C@@H](C)CCCCC/C=C/C(=O)C2 [Greensporone C, reference compound]
